Common to all, as to type: physicochemical
Data set [1] is described as follows: XRPD of solvate forms after drying or heating. The protocol:
For Pattern 1, shown in FIGS. 14A and 15B, 50 mg of the hydrochloride salt of the Compound Formula (I) was suspended in propyl acetate (3.5 mL, 70 vol) and held at 50° C. for 15 minutes, after which 1.1 eq of 12M HCl (11.6 μL) was added and the sample slowly cooled from 50° C. to 5° C. at 0.1° C. per minute. The XRPD pattern shown in FIG. 14A was observed while the sample was wet. […] FIG. 14C depicts the XRPD pattern after further heating at about 145° C. for about 16 hours (Pattern 9′).
For the toluene solvate, shown in FIG. 20 (wet), 50 mg of the polymorphic Form I of a hydrochloride salt of the Compound of Formula (I) was treated with toluene (3.5 mL, 70 vols), producing a suspension at 50° C. This suspension was matured between 50° C. and room temperature (8 hours per cycle) for three days.

The nature of data set [2]: Hydrate screen on the HCl salt: solubility in ethanol/water. To be noted: ethanol/water mixture, aqueous with cosolvent or surfactant or cyclodextrin, thermodynamic from solid; for solubility at 5 days: solubility column beside XRPD after 5 days. The text has this:
(§1) Polymorphic Form I of a hydrochloride salt of (S)-2-(1-(9H-purin-6-ylamino)propyl)-5-fluoro-3-phenylquinazolin-4(3H)-one, i.e., Compound of Formula (I), prepared according to the protocols described in Example 1 above was mixed with ethanol and water. XRPDs were taken on Days 5 and 21.

Data set [3] in a line: Hydrate screen on the HCl salt: solid form by XRPD in ethanol/water (effect of water on stability of Form I). To be noted: for changes in XRPD in the hydrate screen: water/ethanol system. The protocol:
(§2) XRPD patterns were collected at room temperature, using a PANalytical X'Pert MPD Pro Powder X-Ray Diffractometer configured with reflectance stage with spinning, data acquisition range: 2-40 degrees 2θ, Copper (Cu) anode; Kα1/Kα2 radiation; tube current 40 mA; tube tension 45 kV; automatic divergence and anti-scatter slits. Samples were prepared for analysis by distributing solid material as a thin layer on a silicon holder. Each holder was mounted on a reflectance/transmittance stage and rotated during data acquisition.
as §1

Data set [4] can be described thus: Dynamic vapour sorption (DVS). To be noted: 25° C.
Data set [5] can be described thus: Form screen on the HCl salt: solid form by XRPD after suspension in solvent. The protocol:
as §2, with “acquisition. […] After 7 days, a sample of the suspension was removed from the vial/flask, and the sample was centrifuged and filtered to separate the solids from the liquid in the sample. The isolated solids were characterized by XRPD (collected at room temperature). The filtrate was retained. After about 25 days, another sample was removed from the vial/flask, and the sample was centrifuged and filtered to separate the solids from the liquid in the sample. The isolated solids were characterized by XRPD (collected at room temperature).” for “acquisition.”

The mark [6] stands for this setting: 114 mg in tetrahydrofuran (THF).
Setting [7] is: 117 mg in isopropyl acetate (IPAc).
[8] abbreviates: 140 mg in ethyl acetate (EtOAc).
Where [9] appears, read: 149 mg in methyl ethyl ketone (MEK).
The mark [10] stands for this setting: 150 mg in methyl t-butyl ether (MTBE).
The mark [11] stands for this setting: 154 mg in 2-methyltetrahydrofuran (2-MeTHF).
The mark [12] stands for this setting: 160 mg in dichloromethane (DCM).
Setting [13] is: 176 mg in methyl isobutyl ketone (MIBK).

Regarding `CC[C@H](Nc1ncnc2[nH]cnc12)c1nc2cccc(F)c2c(=O)n1-c1ccccc1` [Pattern 9, (S)-2-(1-(9H-purin-6-ylamino)propyl)-5-fluoro-3-phenylquinazolin-4(3H)-one], the “XRPD pattern after further heating” value in data set [1] (further heating at about 145° C. for about 16 hours) is given as “Pattern 9′”.
`CC[C@H](Nc1ncnc2[nH]cnc12)c1nc2cccc(F)c2c(=O)n1-c1ccccc1` [Toluene solvate, (S)-2-(1-(9H-purin-6-ylamino)propyl)-5-fluoro-3-phenylquinazolin-4(3H)-one]: the XRPD upon drying entry in data set [1] (upon drying) is “mixture of Pattern 1 and Pattern 9′”.
By solubility is commonly meant how much of the substance goes into solution per volume. In the case of `CC[C@H](Nc1ncnc2[nH]cnc12)c1nc2cccc(F)c2c(=O)n1-c1ccccc1` [(S)-2-(1-(9H-purin-6-ylamino)propyl)-5-fluoro-3-phenylquinazolin-4(3H)-one], the solubility at 21 days in data set [2] (Ethanol/water aw 0.2) came to 60 mg/mL; in data set [2] (Ethanol/water aw 0.3), 33 mg/mL; in data set [2] (Ethanol/water aw 0.4), 66 mg/mL; in data set [2] (Ethanol/water aw 0.5) it was 93 mg/mL; in data set [2] (Ethanol/water aw 0.6), 183 mg/mL; in data set [2] (Ethanol/water aw 0.7), 223 mg/mL. Besides, the solubility at 21 days in data set [2] (Ethanol/water aw 0.8) is 174 mg/mL; in data set [2] (Ethanol/water aw 0.9), 44 mg/mL. Further, the solubility at 5 days turned out to be 26 mg/mL in data set [2] (Ethanol/water aw 0.2), 47 mg/mL in data set [2] (Ethanol/water aw 0.3), 57 mg/mL in data set [2] (Ethanol/water aw 0.4) and 72 mg/mL in data set [2] (Ethanol/water aw 0.5). The “XRPD after 5 days” value in data set [3] (Ethanol/water aw 0.2), in data set [3] (Ethanol/water aw 0.3), in data set [3] (Ethanol/water aw 0.4), in data set [3] (Ethanol/water aw 0.5), in data set [3] (Ethanol/water aw 0.6) and in data set [3] (Ethanol/water aw 0.7) was “Form I” each time. Besides, the “XRPD after 5 days” value in data set [3] (Ethanol/water aw 0.8) was “Form I”. The “XRPD after 21 days” value in data set [3] (Ethanol/water aw 0.2), in data set [3] (Ethanol/water aw 0.3), in data set [3] (Ethanol/water aw 0.4), in data set [3] (Ethanol/water aw 0.5), in data set [3] (Ethanol/water aw 0.6) and in data set [3] (Ethanol/water aw 0.7) was “Form I” in each case. Also, the “XRPD after 21 days” value in data set [3] (Ethanol/water aw 0.8) is given as “Form I”. For the same compound, the results for the “changes in XRPD in the hydrate screen” value in data set [3] (all water activities except 0.9) and in data set [3] (water activity 0.9) were “no changes in XRPD” and “converted some of the hydrochloride salt to polymorphic Form I of the free form”, respectively. In addition, the “DVS: mass change as a function of RH” value in data set [4] is on record as “minor mass increase”. Moreover, the “XRPD after 7 days” value in data set [5] (setting [6]) was “new”; in data set [5] (setting [7]) it was “Form I”; in data set [5] (119 mg in water), “Form I”; in data set [5] (120 mg in acetonitrile (ACN)) it was “Form I”; in data set [5] (125 mg in acetone) it was “new”; in data set [5] (132 mg in 2-propanol) it was “Form I”. For the same compound, the “XRPD after 7 days” value in data set [5] (setting [8]) was “Form I”; in data set [5] (setting [9]), “new”; in data set [5] (setting [10]), “Form I”; in data set [5] (setting [11]), “Form V”; in data set [5] (155 mg in methanol), “Form I”; in data set [5] (157 mg in Ethanol) it was “Form I”. Besides, the results for the “XRPD after 7 days” value in data set [5] (setting [12]), in data set [5] (163 mg in n-heptane) and in data set [5] (setting [13]) were “new”, “Form I” and “Form I”, respectively. The “XRPD after about 25” value is reported as “Form IX” in data set [5] (setting [6]); “Form I” in data set [5] (setting [7]); “Form I” in data set [5] (119 mg in water); “Form I” in data set [5] (120 mg in acetonitrile (ACN)); “Form X” in data set [5] (125 mg in acetone); “mixture” in data set [5] (132 mg in 2-propanol). Moreover, the “XRPD after about 25” value in data set [5] (setting [8]) was “Form I”; in data set [5] (setting [9]) it was “Form VII”; in data set [5] (setting [10]), “Form I”; in data set [5] (setting [11]), “Form V”; in data set [5] (155 mg in methanol) it was “Form I”; in data set [5] (157 mg in Ethanol), “Form I”. Moreover, the “XRPD after about 25” value in data set [5] (setting [12]) is reported as “Form VIII”; in data set [5] (163 mg in n-heptane), “Form I”; in data set [5] (setting [13]), “Form VI”; in data set [5] (10 g in 1-butanol), “Form XIII”; in data set [5] (10 g in 1-propanol) it was “Form XII”; in data set [5] (10 g in 2-propanol), “Form XI”.
For the compound `CC[C@H](Nc1ncnc2[nH]cnc12)c1nc2cccc(F)c2c(=O)n1-c1ccccc1` [Pattern 1, (S)-2-(1-(9H-purin-6-ylamino)propyl)-5-fluoro-3-phenylquinazolin-4(3H)-one], the “XRPD pattern after drying” value in data set [1] (drying in a vacuum oven at about 25° C. for 6 days) is listed as “Pattern 9”.

For the origin of these results see patent publication US10442805B2, “Polymorphic forms of a hydrochloride salt of (S)-2-(1-(9H-purin-6-ylamino)propyl)-5-fluoro-3-phenylquinazolin-4(3H)-one” (GILEAD CALISTOGA LLC, priority 2013, dated 2019).
